Reference: patent publication US11919901B2 (Syndax Pharmaceuticals, Inc., priority 2021, dated 2024)

How the values were obtained:
[1] = target: hERG (Homo sapiens (Human), UniProt Q12809); assay: Patch clamp assay (hERG tail currents, whole-cell); assay type: cell-based; settings: hERG transfected HEK 293 cells; for hERG % Remaining 30 μM: 30 μM compound; for hERG % Remaining 10 μM: 10 μM compound
[2] = target: Menin-MLL (Homo sapiens (Human), UniProt O00255); assay: Determination of binding constants (Ki) to Menin-MLL (HTRF); settings: HTRF, 0.25 nM H-FL-Menin, 3.2 nM FITC-MLL-4-43, 24 hr incubation; for Ki: read-out: Menin-MLL Ki HTRF Assay: Ki
Menin-MLL, sequence (O00255 whole entry): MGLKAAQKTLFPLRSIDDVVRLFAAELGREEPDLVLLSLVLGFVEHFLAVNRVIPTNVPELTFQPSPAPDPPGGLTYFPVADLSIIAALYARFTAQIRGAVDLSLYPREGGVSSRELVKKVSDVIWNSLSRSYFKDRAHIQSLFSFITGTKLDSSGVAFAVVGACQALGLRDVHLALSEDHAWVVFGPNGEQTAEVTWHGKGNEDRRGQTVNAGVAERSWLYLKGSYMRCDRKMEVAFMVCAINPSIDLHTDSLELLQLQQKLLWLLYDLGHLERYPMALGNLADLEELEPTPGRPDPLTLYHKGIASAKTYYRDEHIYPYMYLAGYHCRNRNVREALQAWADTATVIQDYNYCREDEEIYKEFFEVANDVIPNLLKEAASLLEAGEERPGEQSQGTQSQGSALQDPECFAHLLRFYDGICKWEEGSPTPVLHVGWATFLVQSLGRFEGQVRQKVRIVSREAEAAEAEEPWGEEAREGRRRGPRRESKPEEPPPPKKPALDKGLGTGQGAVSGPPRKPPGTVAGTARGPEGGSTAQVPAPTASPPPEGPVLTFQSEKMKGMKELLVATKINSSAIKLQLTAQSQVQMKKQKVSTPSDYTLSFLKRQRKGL

hERG, sequence (Q12809 whole entry): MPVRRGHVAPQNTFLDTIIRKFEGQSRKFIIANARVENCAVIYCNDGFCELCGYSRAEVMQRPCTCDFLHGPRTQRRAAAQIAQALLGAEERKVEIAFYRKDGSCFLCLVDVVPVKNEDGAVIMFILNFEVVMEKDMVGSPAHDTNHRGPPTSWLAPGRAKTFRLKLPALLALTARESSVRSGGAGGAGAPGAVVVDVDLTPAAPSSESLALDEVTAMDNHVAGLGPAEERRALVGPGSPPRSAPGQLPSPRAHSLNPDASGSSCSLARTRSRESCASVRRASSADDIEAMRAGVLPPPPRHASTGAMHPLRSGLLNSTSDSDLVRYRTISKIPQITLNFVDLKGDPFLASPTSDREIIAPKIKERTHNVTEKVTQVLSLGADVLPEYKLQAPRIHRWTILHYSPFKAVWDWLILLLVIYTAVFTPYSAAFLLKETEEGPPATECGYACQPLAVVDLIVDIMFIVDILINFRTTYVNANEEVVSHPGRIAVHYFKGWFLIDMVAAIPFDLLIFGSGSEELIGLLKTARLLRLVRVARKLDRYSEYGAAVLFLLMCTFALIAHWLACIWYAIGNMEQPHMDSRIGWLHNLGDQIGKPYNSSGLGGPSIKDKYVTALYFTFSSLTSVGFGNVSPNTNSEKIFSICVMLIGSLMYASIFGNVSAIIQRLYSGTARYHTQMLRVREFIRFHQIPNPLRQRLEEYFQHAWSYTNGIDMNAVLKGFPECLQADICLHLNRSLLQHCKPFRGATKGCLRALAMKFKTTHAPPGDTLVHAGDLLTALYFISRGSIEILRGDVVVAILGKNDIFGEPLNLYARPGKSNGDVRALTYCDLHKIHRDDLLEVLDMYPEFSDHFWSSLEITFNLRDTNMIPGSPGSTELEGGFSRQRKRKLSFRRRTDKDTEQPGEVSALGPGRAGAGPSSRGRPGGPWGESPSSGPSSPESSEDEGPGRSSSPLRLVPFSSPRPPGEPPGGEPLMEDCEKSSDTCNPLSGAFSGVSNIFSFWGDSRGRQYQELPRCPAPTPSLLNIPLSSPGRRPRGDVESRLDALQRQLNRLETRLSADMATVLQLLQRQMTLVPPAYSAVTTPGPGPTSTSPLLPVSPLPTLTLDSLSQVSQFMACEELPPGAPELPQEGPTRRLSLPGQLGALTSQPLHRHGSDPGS

CCNS(=O)(=O)N[C@@H]1CC[C@@H](CN2CCC3(CC2)CN(c2ncnnc2Oc2ccc(F)cc2C(=O)N(CC(F)(F)F)C(C)C)C3)OC1 (single isomer, unassigned) [Compound 193]
hERG % Remaining 30 μM [1]: +++ (“+++” means ≥66%)
IC50 [1]: ≥ 50 µM
Ki [2]: < 0.001 µM

CCN(C(=O)c1cc(F)ccc1Oc1cncnc1N1CC2(CCN(C[C@@H]3CC[C@@H](NS(C)(=O)=O)CO3)CC2)C1)C(C)C [Compound 1, N-ethyl-5-fluoro-N-isopropyl-2-((4-(7-(((2S,5R)-5-(methylsulfonamido)tetrahydro-2H-pyran-2-yl)methyl)-2,7-diazaspiro[3.5]nonan-2-yl)pyrimidin-5-yl)oxy)benzamide]
hERG % Remaining 10 μM [1]: +++ (“+++” means ≥66%)
hERG % Remaining 30 μM [1]: ++ (“++” means ≥33% and <66%)
EC50 [2]: < 0.05 µM
Ki [2]: < 0.001 µM

CCN(C(=O)c1cc(F)ccc1Oc1cncnc1N1CC2(CCN(C[C@@H]3CC[C@@H](NS(=O)(=O)CC)CO3)CC2)C1)C(C)C [Compound 2, N-ethyl-2-((4-(7-(((2S,5R)-5-(ethylsulfonamido)tetrahydro-2H-pyran-2-yl)methyl)-2,7-diazaspiro[3.5]nonan-2-yl)pyrimidin-5-yl)oxy)-5-fluoro-N-isopropylbenzamide]
hERG % Remaining 10 μM [1]: +++ (“+++” means ≥66%)
hERG % Remaining 30 μM [1]: +++ (“+++” means ≥66%)
EC50 [2]: < 0.05 µM
Ki [2]: < 0.001 µM

CCN(C(=O)c1cc(F)ccc1Oc1cncnc1N1CC2(CCN(C[C@@H]3CC[C@@H](NS(=O)(=O)C4CC4)CO3)CC2)C1)C(C)C [Compound 4, 2-((4-(7-(((2S,5R)-5-(cyclopropanesulfonamido)tetrahydro-2H-pyran-2-yl)methyl)-2,7-diazaspiro[3.5]nonan-2-yl)pyrimidin-5-yl)oxy)-N-ethyl-5-fluoro-N-isopropylbenzamide]
hERG % Remaining 10 μM [1]: +++ (“+++” means ≥66%)
hERG % Remaining 30 μM [1]: +++ (“+++” means ≥66%)
IC50 [1]: ≥ 50 µM
EC50 [2]: < 0.05 µM
Ki [2]: < 0.001 µM

CCN(C(=O)c1cc(F)ccc1Oc1cncnc1N1CC2(CCN(C[C@@H]3CC[C@@H](NS(=O)(=O)C4CCC4)CO3)CC2)C1)C(C)C [Compound 6, 2-((4-(7-(((2S,5R)-5-(cyclobutanesulfonamido)tetrahydro-2H-pyran-2-yl)methyl)-2,7-diazaspiro[3.5]nonan-2-yl)pyrimidin-5-yl)oxy)-N-ethyl-5-fluoro-N-isopropylbenzamide]
hERG % Remaining 10 μM [1]: +++ (“+++” means ≥66%)
hERG % Remaining 30 μM [1]: ++ (“++” means ≥33% and <66%)
EC50 [2]: < 0.05 µM
Ki [2]: < 0.001 µM

CCN(C(=O)c1cc(F)ccc1Oc1cncnc1N1CC2(CCN(C[C@@H]3CC[C@@H](NC(=O)OC(C)(C)C)CO3)CC2)C1)C(C)C [Compound 11, tert-butyl ((3R,6S)-6-((2-(5-(2-(ethyl(isopropyl)carbamoyl)-4-fluorophenoxy)pyrimidin-4-yl)-2,7-diazaspiro[3.5]nonan-7-yl)methyl)tetrahydro-2H-pyran-3-yl)carbamate]
hERG % Remaining 10 μM [1]: + (“+” means <33%)
hERG % Remaining 30 μM [1]: + (“+” means <33%)
EC50 [2]: < 0.05 µM
Ki [2]: < 0.001 µM

CC(C)N(CC(F)F)C(=O)c1cc(F)ccc1Oc1cncnc1N1CC2(CCN(C[C@@H]3CC[C@@H](NS(=O)(=O)N4CC(O)C4)CO3)CC2)C1 [Compound 237, N-(2,2-Difluoroethyl)-5-fluoro-2-((4-(7-(((2S,5R)-5-((3-hydroxyazetidine)-1-sulfonamido)tetrahydro-2H-pyran-2-yl)methyl)-2,7-diazaspiro[3.5]nonan-2-yl)pyrimidin-5-yl)oxy)-N-isopropylbenzamide]
Ki [2]: < 0.001 µM

CC(C)N(CC(F)F)C(=O)c1cc(F)ccc1Oc1cncnc1N1CC2(CCN(C[C@@H]3CC[C@@H](NS(=O)(=O)N(C)CCOCc4ccccc4)CO3)CC2)C1 [Compound 238]
Ki [2]: < 0.001 µM

CCS(=O)(=O)N[C@@H]1CC[C@@H](CN2CCC3(CC2)CN(c2ncncc2Oc2ccc(F)cc2C(=O)N(CCC(F)F)C(C)C)C3)OC1 [Compound 242, N-(3,3-Difluoropropyl)-2-((4-(7-(((2S,5R)-5-(ethylsulfonamido)tetrahydro-2H-pyran-2-yl)methyl)-2,7-diazaspiro[3.5]nonan-2-yl)pyrimidin-5-yl)oxy)-5-fluoro-N-isopropylbenzamide]
EC50 [2]: < 0.05 µM
Ki [2]: < 0.001 µM

CCS(=O)(=O)N[C@@H]1CC[C@@H](CN2CCC3(CC2)CN(c2ncncc2Oc2ccc(F)cc2C(=O)N(C(C)C)C2CC(F)C2)C3)OC1 (stereo partly drawn) [Compound 244, 2-((4-(7-(((2S,5R)-5-(ethylsulfonamido)tetrahydro-2H-pyran-2-yl)methyl)-2,7-diazaspiro[3.5]nonan-2-yl)pyrimidin-5-yl)oxy)-5-fluoro-N-((1s,3s)-3-fluorocyclobutyl)-N-isopropylbenzamide]
hERG % Remaining 10 μM [1]: +++ (“+++” means ≥66%)
hERG % Remaining 30 μM [1]: ++ (“++” means ≥33% and <66%)

CC(C)N(C(=O)c1cc(F)ccc1Oc1cncnc1N1CC2(CCN(C[C@@H]3CC[C@@H](NS(=O)(=O)C4CC4)CO3)CC2)C1)C1COC1 [Compound 247, 2-((4-(7-(((2S,5R)-5-(Cyclopropanesulfonamido)tetrahydro-2H-pyran-2-yl)methyl)-2,7-diazaspiro[3.5]nonan-2-yl)pyrimidin-5-yl)oxy)-5-fluoro-N-isopropyl-N-(oxetan-3-yl)benzamide]
EC50 [2]: < 0.05 µM
Ki [2]: < 0.001 µM

CCS(=O)(=O)N[C@@H]1CC[C@@H](CN2CCC3(CC2)CN(c2ncncc2Oc2ccc(F)cc2C(=O)N(C(C)C)C2CCOCC2)C3)OC1 [Compound 250, 2-((4-(7-(((2S,5R)-5-(Ethylsulfonamido)tetrahydro-2H-pyran-2-yl)methyl)-2,7-diazaspiro[3.5]nonan-2-yl)pyrimidin-5-yl)oxy)-5-fluoro-N-isopropyl-N-(tetrahydro-2H-pyran-4-yl)benzamide]
EC50 [2]: < 0.05 µM

CCS(=O)(=O)N[C@@H]1CC[C@@H](CN2CCC3(CC2)CN(c2ncncc2Oc2ccc(F)cc2C(=O)N(C(C)C)[C@@H]2C[C@@H]4CC[C@H]2O4)C3)OC1 [Compound 251, N-((lR,2R,4S)-7-Oxabicyclo[2.2.1]heptan-2-yl)-2-((4-(7-(((2S,5R)-5-(ethylsulfonamido)tetrahydro-2H-pyran-2-yl)methyl)-2,7-diazaspiro[3.5]nonan-2-yl)pyrimidin-5-yl)oxy)-5-fluoro-N-isopropylbenzamide]
Ki [2]: < 0.001 µM

CCS(=O)(=O)N[C@@H]1CC[C@@H](CN2CCC3(CC2)CN(c2ncncc2Oc2ccc(F)cc2C(=O)N(C(C)C)C2CC4(COC4)C2)C3)OC1 [Compound 252, 2-((4-(7-(((2S,5R)-5-(Ethylsulfonamido)tetrahydro-2H-pyran-2-yl)methyl)-2,7-diazaspiro[3.5]nonan-2-yl)pyrimidin-5-yl)oxy)-5-fluoro-N-isopropyl-N-(2-oxaspiro[3.3]heptan-6-yl)benzamide]
Ki [2]: < 0.001 µM

CCS(=O)(=O)N[C@@H]1CC[C@@H](CN2CCC3(CC2)CN(c2ncncc2Oc2ccc(F)cc2C(=O)N(C(C)C)[C@H]2[C@@H]4COC[C@@H]42)C3)OC1 [Compound 253, N-((1R,5S,6r)-3-c)-2-((4-(7-(((2S,5R)-5-(ethylsulfonamido)tetrahydro-2H-pyran-2-yl)methyl)-2,7-diazaspiro[3.5]nonan-2-yl)pyrimidin-5-yl)oxy)-5-fluoro-N-isopropylbenzamide]
Ki [2]: < 0.001 µM

COCCN(C(=O)c1cc(F)ccc1Oc1cncnc1N1CC2(CCN(C[C@@H]3CC[C@@H](NS(=O)(=O)c4ccccc4)CO3)CC2)C1)C(C)C [Compound 254, 5-Fluoro-N-isopropyl-N-(2-methoxyethyl)-2-((4-(7-(((2S,5R)-5-(phenylsulfonamido)tetrahydro-2H-pyran-2-yl)methyl)-2,7-diazaspiro[3.5]nonan-2-yl)pyrimidin-5-yl)oxy)benzamide]
EC50 [2]: < 0.05 µM
Ki [2]: < 0.001 µM

CCS(=O)(=O)N[C@@H]1CC[C@@H](CN2CCC3(CC2)CN(c2ncncc2Oc2ccc(F)cc2C(=O)N(C[C@@H](O)CO)C(C)C)C3)OC1 [Compound 255, N-((R)-2,3-Dihydroxypropyl)-2-((4-(7-(((2S,5R)-5-(ethylsulfonamido)tetrahydro-2H-pyran-2-yl)methyl)-2,7-diazaspiro[3.5]nonan-2-yl)pyrimidin-5-yl)oxy)-5-fluoro-N-isopropylbenzamide]
EC50 [2]: < 0.05 µM
Ki [2]: < 0.001 µM

CCS(=O)(=O)N[C@@H]1CC[C@@H](CN2CCC3(CC2)CN(c2ncncc2Oc2ccc(F)cc2C(=O)N(C(C)C)[C@H]2C[C@H](O)C2)C3)OC1 [Compound 259, 2-((4-(7-(((2S,5R)-5-(Ethylsulfonamido)tetrahydro-2H-pyran-2-yl)methyl)-2,7-diazaspiro[3.5]nonan-2-yl)pyrimidin-5-yl)oxy)-5-fluoro-N-((1r,3r)-3-hydroxycyclobutyl)-N-isopropylbenzamide]
EC50 [2]: < 0.05 µM
Ki [2]: < 0.001 µM

CCS(=O)(=O)N[C@@H]1CC[C@@H](CN2CCC3(CC2)CN(c2ncncc2Oc2ccc(F)cc2C(=O)N(c2ccccc2)C(C)C)C3)OC1 [Compound 260, 2-((4-(7-(((2S,5R)-5-(Ethylsulfonamido)tetrahydro-2H-pyran-2-yl)methyl)-2,7-diazaspiro[3.5]nonan-2-yl)pyrimidin-5-yl)oxy)-5-fluoro-N-isopropyl-N-phenylbenzamide]
EC50 [2]: < 0.05 µM

CCS(=O)(=O)N[C@@H]1CC[C@@H](CN2CCC3(CC2)CN(c2ncncc2Oc2ccc(F)cc2C(=O)N(c2ccccc2)c2ccccc2)C3)OC1 [Compound 261]
EC50 [2]: < 0.05 µM

CCN(C(=O)c1cc(F)ccc1Oc1cncnc1N1CC2(CCN(C[C@H]3CC[C@H](NS(=O)(=O)CC)CC3)CC2)C1)C(C)C [SNDX-5613]
hERG % Remaining 1 μM ([1]; 1 μM compound): +++ (“+++” means ≥66%)
hERG % Remaining 3 μM ([1]; 3 μM compound): +++ (“+++” means ≥66%)
hERG % Remaining 10 μM [1]: ++ (“++” means ≥33% and <66%)
hERG % Remaining 30 μM [1]: ++ (“++” means ≥33% and <66%)
hERG % Remaining 100 μM ([1]; 100 μM compound): + (“+” means <33%)
IC50 [1]: < 25 µM
